Assay results published in PubChem BioAssay (NCI).
Several values for one entry are separate records, joined by “and”; a condition that tells them apart may be missing. Identical values can stand only once.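 Test compounds were applied to cells in 96-well plates for 48 hours at 5 doses. Abbreviation: GI50, concentration required for 50% inhibition of growth. Definition used: TGI = concentration required for complete inhibition of growth.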

Columns and labels:
Experiment in all cases: growth of human tumour cells (NCI), 48 h
ACHN renal = tested on: ACHN renal
COLO 205 colon = tested on: COLO 205 colon
DMS 114 small cell lung = tested on: DMS 114 small cell lung
DMS 273 small cell lung = tested on: DMS 273 small cell lung
DU-145 prostate = tested on: DU-145 prostate
HL-60(TB) leukemia = tested on: HL-60(TB) leukemia
HOP-18 NSCLC = tested on: HOP-18 NSCLC
HT29 colon = tested on: HT29 colon
KM20L2 colon = tested on: KM20L2 colon
OVCAR-4 ovarian = tested on: OVCAR-4 ovarian
OVCAR-5 ovarian = tested on: OVCAR-5 ovarian
UACC-62 melanoma = tested on: UACC-62 melanoma

Compound	TGI (ACHN renal)	GI50 (COLO 205 colon)	TGI (COLO 205 colon)	TGI (DMS 114 small cell lung)	TGI (DMS 273 small cell lung)	GI50 (DU-145 prostate)	TGI (DU-145 prostate)	GI50 (HL-60(TB) leukemia)	TGI (HL-60(TB) leukemia)	TGI (HOP-18 NSCLC)	GI50 (HT29 colon)	TGI (HT29 colon)	TGI (KM20L2 colon)	GI50 (OVCAR-4 ovarian)	TGI (OVCAR-4 ovarian)	GI50 (OVCAR-5 ovarian)	TGI (OVCAR-5 ovarian)	TGI (UACC-62 melanoma)
CCN(CC)CCC(=O)O[C@H]1CC[C@H](CC(C)[C@H]2CC(=O)C(C)C=C(C)[C@H](OC(=O)CCN(CC)CC)C(OC)C(=O)[C@@H](C)CC(C)/C=C/C=C/C=C(C)C(OC)CC3CC[C@H](C)[C@](O)(O3)C(=O)C(=O)N3CCCCC3C(=O)O2)CC1OC (some centres undefined)	2.62 µM and 4.48 µM	1.04 µM	2.8 µM and 2.49 µM	1.54 µM	2.32 µM	1.17 µM	> 10 µM and 8.38 µM	1.83 µM and 0.345 µM	4.48 µM and 1.16 µM	3.35 µM	1.07 µM	2.57 µM and 2.44 µM	> 4.99 µM	0.00163 µM	> 10 µM and 2.46 µM	1.63 µM	8.16 µM and 7.73 µM	1.99 µM
COc1cc2nncc(SCc3ccc(Cl)c(Cl)c3)c2cc1OC	> 100 µM	–	> 100 µM	> 100 µM	> 100 µM	–	> 100 µM	–	> 100 µM	> 100 µM	–	> 100 µM	> 100 µM	–	> 91.9 µM	–	> 100 µM	> 100 µM
c1ccc2c(CN3CCC(C4CCN(Cc5cccc6ccccc56)CC4)CC3)cccc2c1	> 100 µM	–	3.39 µM and 3.65 µM	6.76 µM	22.9 µM	–	> 100 µM	–	4.5 µM and 26.1 µM	> 100 µM	–	11.7 µM and 11.2 µM	10.3 µM	13.6 µM and 35.9 µM	38.2 µM and > 100 µM	22.3 µM and > 100 µM	> 100 µM	17.5 µM and 20.9 µM
